Data on seven molecules can be found in article PMC9078534 (RSC Advances, 2018).

Series [1] in a line: Renal clearance (CLr) of SAL and PAH in hypoxic and normoxic rats. Format: in vivo. As to conditions: rat, plasma and urine, iv. As for the experimental part: The animal surgery was conducted as described in literature.[23,24] Briefly, the cannulae were inserted into rat right jugular veins, left femoral veins, and bladders after an i.m. injection of 90 mg kg^−1 ketamine and 9 mg kg^−1 xylazine. All surgical procedures were performed under anaesthesia and in a clean surgical room with sterilized instruments. […] Urine from the bladder was collected through the catheter into pre-weighed micro-centrifuge tubes and the volume of urine collected during each 30 min period was calculated by weight. To equilibrate and establish a steady rate of urine excretion, rats were continuously infused with warm saline solution containing mannitol (5%, w/v) for 1 h at a rate of 16 μl min^−1 through the femoral veins (n = 5 each group) using a Sage Instruments Syringe Pump (Cambridge, MA, USA). During the experiment, the rat was placed on a heating pad to maintain body temperature. […] After each blood sampling, an aliquot of 200 μl saline was infused into the jugular to replace the volume of blood taken.

Series [2] can be described thus: Stability of SAL in samples during UPLC-MS/MS method validation. It counts as physicochemical. The method, then: To prepare the samples for calibration curves, 10 μl of IS working solution (containing 100 μg ml^−1 paracetamol) and 10 μl of analyte work solution was added to 100 μl of blank rat plasma. Approximately 300 μl methanol was then added to the above plasma sample for protein precipitation. After centrifuging the mixture at 11 300g for 10 min, the supernatant was collected followed by being evaporated to dryness under nitrogen at room temperature. The residue was reconstituted with 100 μl of methanol. After being centrifuged at 11 300g for 10 min, an aliquot of 5 μl supernatant was injected into the UPLC-MS/MS system for analyses. […] For all QC samples in rat biological matrices, the % RSD of both intra-day and inter-day precision was below 10.4%, and the accuracy was within the range of 85.4 to 100%, which met the criteria from FDA.

Another series deals with Caco-2 monolayers. Description: Transport of SAL across normoxic and hypoxic Caco-2 monolayers (Papp). It counts as in vitro ADME, human. As for the experimental part: (§1) The human colorectal adenocarcinoma cell line, Caco-2 cell, was obtained from Cell Resource Center, Institute of Basic Medical Sciences (CAMS). Caco-2 cells, a recognized cell model used for permeability study, were cultured in minimum essential medium (MEM) containing 10% fetal bovine serum, 1% nonessential amino acids, 100 U ml^−1 penicillin, and 100 μg ml^−1 streptomycin, and then were kept in a humidified incubator at 37 °C with 5% CO2. To obtain differentiated monolayers, Caco-2 cells were seeded in Transwell® chambers (12 mm, 0.4 μm pore size; Corning, MA, USA) at a density of 1 × 10^5 cells per wells and cultured for 21 days. TEER (trans-epithelial electrical resistance) was used to monitor the integrity of the monolayer. Monolayer with TEER above 600 Ω cm^2 was employed in the present study. Caco-2 cells grown in Transwell® at passage 32–45 were used for the experiment. After cultivation for 21 days, normoxic incubations were performed in a tissue culture incubator at 37 °C, 5% CO2, while hypoxic incubations were performed in an oxygen-control hypoxic glove box at 37 °C, 1% oxygen content for 24 h.[15] The enzyme activities of LDH, CS and the protein expression of HIF-1α were monitored for hypoxic model validation. The morphological study on hypoxic Caco-2 monolayer was performed with the aid of transmission electron microscopy (TEM) (JEM-2100F, Japan). The expression level of tight junction proteins (ZO-1) in Caco-2 cell under normoxic and hypoxic conditions was measured by western blotting.
(§2) According to the method published in Nature Protocols, the transport test was performed in Hank's balanced salt solution (HBSS) containing 5.56 mM glucose, 10 mM HEPES and 1.26 mM CaCl2.[16] Before experiment, the monolayers were washed twice with HBSS medium and pre-incubated for 30 min. […] Equal volume of the blank HBSS buffer was added back to the chambers after sampling to maintain a constant systemic volume. The collected samples were stored at −20 °C until UPLC-MS/MS analyses.
(§3) The Caco-2 monolayer was pre-incubated with phlorizin (100 μM) for 30 min before the transport experiment.

Assay in series [3]: as above
Format: in vitro ADME, human. As to conditions: human, SAL 10 μM. The method, then:
as §1, §2, §3

The conditions of series [4]: cited from earlier work.
The conditions of series [5]: male, SD, rat, in vivo.
Description: (§4) Briefly, rats were exposed to hypoxic condition (oxygen content of 9%) for 3 consecutive days to construct the model. Normoxic controls were kept in room air (21% O2) for 3 consecutive days. The concentrations of LDH, CS, and HIF-1α in rat plasma were monitored with the aid of commercial kit listed in ‘Material’ section for model validation.
(§5) Twenty male SD rats were randomly divided into hypoxic group (HYP) and normoxic group (NOR) with ten rats in each group. Following hypoxic and normoxic model construction, rats were prepared for surgery. […] Briefly, rats were anesthetized with an intramuscular dose of ketamine (90 mg kg^−1) and xylazine (9 mg kg^−1) followed by cannulation with a polythene tube (0.5 mm i.d., 1 mm, Portex Ltd., Hythe, Kent, England) in the right jugular vein. The rats were allowed to recover overnight and had free access to water and food. […] The blood samples (200 μl) were taken from the jugular vein catheter and were collected into the heparinized tubes at the following time points: 0, 5, 10, 30, 60, 120, 240, 360, 480, 720 and 1440 min after oral administration and 0, 2, 5, 10, 30, 60, 120, 240, 360, 480 min after intravenous administration, respectively. An aliquot of 200 μl sterile isotonic saline was given immediately to rats after blood sample collection for compensation of body fluid loss. The animals were sacrificed with pentobarbital sodium salt (200 mg kg^−1, i.p.) at the end of the experiment. The obtained blood samples were centrifuged at 11 300g for 5 min at 4 °C and the plasma samples (supernatant) was collected for UPLC-MS/MS analyses. Protein precipitation was adopted for samples preparation.
(§6) Pharmacokinetic parameters including the area under the curve (AUC) and elimination half-life (t1/2) were calculated by non-compartmental model. The peak plasma concentration (Cmax) and the time for reaching Cmax (Tmax) were obtained directly from the experimental data.
Another series in a line: in vivo. To be noted: male, SD, rat.
Series [6] in a line: Protein binding of SAL in rat plasma by ultrafiltration. Format: in vitro ADME. To be noted: three spiking concentrations (100, 500, 1000 μg ml^−1), 37 °C, 30 min. As for the experimental part:
After incubation at 37 °C for 30 min, an aliquot of 500 μl plasma was added into the upper part of the centrifugal filter device (Amicon®, cutoff value: 10 kDa). The centrifuge was then conducted in a rate of 11 300g for 30 min at room temperature. SAL in the original sample and ultrafiltrate were determined by UPLC-MS/MS method.

The next series relates to SULT2A1. Description: Kinetics of p-tyrosol sulfate formation from p-tyrosol in rat liver S9 fraction (RLS), sulfation by SULT2A1. Format: in vitro ADME. The method, then:
The formation rate of p-tyrosol sulfate could therefore serve as an indicator for the hepatic metabolic rate of SAL. […] The incubation was carried out at 37 °C and terminated by the addition of an equal volume of ice-cold methanol containing 5 μM IS.[18] The content of p-tyrosol sulfate was determined by the UPLC-MS/MS described above. […] All the experiments were carried out in triplicate.
GraphPad Prism® was employed to analyze enzyme kinetic data.

For another series, the system named is CBG. The arrangement: method as in doi:10.1021/symposium. As to conditions: other phenolic glycosides; cited from earlier work.
Substrate in series [7]: OC[C@H]1O[C@@H](OCCc2ccc(O)cc2)[C@H](O)[C@@H](O)[C@@H]1O
Description: cells, lysate or membranes named. To be noted: pH 7.4, 37.0 °C.

The mark [8] stands for this setting: Caco-2, hypoxic Caco-2 monolayer model (1% O2, 24 h).
Where [9] appears, read: Caco-2, normoxic Caco-2 monolayer model.
Setting [10] is: background statement, no reference given.

Counter-ions that a name gives are not always drawn. Like-named read-outs stand apart in the source and are kept apart here.

Description for in vivo: as §4, §5, §6

Turning to `Nc1ccc(C(=O)NCC(=O)O)cc1` [PAH, p-aminohippuric acid, reference compound], the CL renal in series [1] (30 mg/kg, hypoxic rats, PAH 30 mg kg^−1 i.v. bolus) is 0.818 mL/min/kg; in series [1] (30 mg/kg, normoxic rats, PAH 30 mg kg^−1 i.v. bolus), 3.28 mL/min/kg.

Take `OC[C@H]1O[C@@H](OCCc2ccc(O)cc2)[C@H](O)[C@@H](O)[C@@H]1O` [SAL, salidroside]: the stability entry in [2] (auto-sampler (4 °C) for 24 h) and in [2] (−80 °C for 30 days) was “stable” throughout. Further, the CL renal in series [1] (444 ug/kg, hypoxic rats, SAL 444 μg kg^−1 i.v. bolus) was 0.497 mL/min/kg; in series [1] (444 ug/kg, normoxic rats, SAL 444 μg kg^−1 i.v. bolus), 1.77 mL/min/kg. Also, the “ratio between Papp(A→B) and Papp(B→A)” value in the series with Caco-2 monolayers (hypoxic Caco-2 monolayer model) turned out to be 2.53; in the series with Caco-2 monolayers (normoxic Caco-2 monolayer model), 10.0; with Caco-2 monolayers (normoxic Caco-2 monolayer model, after addition of SGLT1 inhibitor (phlorizin 100 μM)) it was 2.24. In addition, the values for the Papp A→B at 180 min, 10 μM in series [3] (setting [8]) and in series [3] (setting [9]) were 1.77 ± 0.18 ×10⁻⁶ cm/s and 0.88 ± 0.11 ×10⁻⁶ cm/s, respectively. Besides, the Papp B→A at 180 min, 10 μM was found to be 0.7 ± 0.2 ×10⁻⁶ cm/s in [3] (setting [8]) and 0.088 ± 0.02 ×10⁻⁶ cm/s in series [3] (setting [9]). The “share of parent compound that undergoes deglycosylation and sulfation” value in [4] (after oral administration to rats, literature and preliminary studies) is reported as “more than 50%”. Also, the “share of administered SAL excreted from urine as parent compound” value in [4] (setting [10]) is “about 20%”. For the same molecule, in [4] (setting [10]), the “share of eliminated SAL accounted for by renal clearance” value is listed as “no more than 20%”. Moreover, in series [5] (iv, 444 ug/kg), the “MRT(0→t)” value turned out to be 70.9 ± 7.9 min. Also, the t1/2 in series [5] (iv, 444 ug/kg) amounted to 97.5 ± 12.5 min. Further, the Cmax amounted to 1835.4 ± 690.5 ng/mL in series [5] (po, 4.44 mg/kg) and 2070 ± 264 ng/mL in the series “in vivo” (po, 4.44 mg/kg, Cmax). The Tmax is 48.0 ± 16.4 min in series [5] (po, 4.44 mg/kg) and 36 min in the series “in vivo” (po, 4.44 mg/kg, Tmax). Moreover, in “in vivo” (iv, 444 ug/kg, MRT(0→t)), the mean residence time MRT last was 48.3 min. Moreover, the half-life in “in vivo” (iv, 444 ug/kg, t1/2) came to 67.2 ± 11.8 min. Further, in series [6], the “plasma binding ratio, hypoxic versus normoxic rats” value was “similar”.

Regarding `O=S(=O)(O)Oc1ccc(CCO)cc1` [p-Tyrosol sulfate, p-tyrosol sulfate], the “share of total metabolites of SAL” value in [4] (rats, systemic circulation) is on record as “over 50%”.

As to `OCCc1ccc(O)cc1` [p-tyrosol], in the series with SULT2A1 (hypoxic RLS), the “Clint of SULT2A1” value is 10.4 ± 2.7 µL/min/mg and the “Vmax of SULT2A1 (p-tyrosol sulfate formation from p-tyrosol)” value was 78.3 ± 11.2 nmol/min/mg. In the series on SULT2A1 (normoxic RLS), the “Clint of SULT2A1” value stood at 5.8 ± 1.2 µL/min/mg and the “Vmax of SULT2A1 (p-tyrosol sulfate formation from p-tyrosol)” value was found to be 23.3 ± 4.4 nmol/min/mg.

On to daidzein 4-glycoside, for which the Km in the series on CBG is 50 µM.

Turning to quercetin 4-glycoside, the Km with CBG is 65 µM.

B1: cytosolic β-glucosidase (CBG) (Rattus norvegicus) (protein)
chain: MAFPVGFGWGAATAAYQVEGGWDADGRGPCVWDTFTHQGGERVFENQTGDVACGSYTLWEEDLKCIKQLGLTHYRFSLSWSRLLPDGTTGFINQKGIDYYNKIIDDLLKNGVTPIVAIYHFDLPQALEDLGGWLSEAIVEAFDKYAQFCFSTFGDRVKQWLTINEPNILALLAYDMGIFAPGVPHIGIGGYQAAHNLIKAHARSWHSYDSLFREEQKGFVSLSLFFCWLEPADPNSEIDQEATKRAINFHLDFFAKPIFIDGDYPDVVKSQVASMSKKQGYPSSRLPEFTEEEKKMIKGTADFFAVQYYTTRLVRHQENKKRELGFLQDVEIEFFPNPFWKNVGWIYVVPWGIRKLLKYIKDTYNNPVIYITENGFPQCDPPSLDDTQRWEYFRQTFQELFKAIHVDDVNLQLYCAWSLLDNFEWNNGYSRRFGLFHVDFEDPARPRTPYRSAKEYAKVIRDNGLAGAM
B1: the Km came to 19.5 ± 3.1 µM in [7] (other: hypoxic RLS) and 5.2 ± 0.6 µM in series [7] (other: normoxic RLS).
